Patent US20240122180A1, “FUNGICIDAL HALOMETHYL KETONES AND HYDRATES AND THEIR MIXTURES” (FMC Corporation, priority 2020, published 2024)
Marks after values point to notes of the source that are not given here.

Key:
Assay type in all cases: in vivo
[1] = system: Zymoseptoria tritici (the causal agent of wheat leaf blotch); experiment: Test D: preventive spray on wheat seedlings, disease rating (100 = 100% control; * 50 ppm, ** 10 ppm, *** 250 ppm); conditions: 250 ppm test suspension, 100 = 100% disease control; for pest or weed control at 250 ppm: Zymoseptoria tritici
Excerpt: (§1) General protocol for preparing test suspensions for Tests A-E: the test compounds were first dissolved in acetone in an amount equal to 3% of the final volume and then suspended at the desired concentration (in ppm) in acetone and purified water (50/50 mix by volume) containing 250 ppm of the surfactant […] (polyhydric alcohol esters). The resulting test suspensions were then used in Tests A-E.
The test solution was sprayed to the point of run-off on wheat seedlings. The following day the seedlings were inoculated with a spore suspension of Zymoseptoria tritici (the causal agent of wheat leaf blotch) and incubated in a saturated atmosphere at 24° C. for 48 h, and then moved to a growth chamber at 20° C. for 17 days, after which time disease ratings were made.
(§2) Results for Tests A-E are given in Table A. In the Table, a rating of 100 indicates 100% disease control and a rating of 0 indicates no disease control (relative to the controls). An asterisk “*” or a double asterisk “**” or a triple asterisk “***” next to the rating value indicates a 50 ppm, 10 ppm and 250 ppm test suspension was used, respectively. A dash (-) indicates the compound was not tested.

[2] = system: Puccinia recondita f. sp. tritici (the causal agent of wheat leaf rust); experiment: Test B: preventive spray on wheat seedlings, disease rating (100 = 100% control; * 50 ppm, ** 10 ppm, *** 250 ppm); conditions: 100 = 100% disease control
In short: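 Preventive test: Puccinia recondita f. sp. tritici spores were inoculated one day after run-off spraying of wheat seedlings with test suspension (acetone/water 50/50, 250 ppm PEG400). After 24 h in saturated air and 6 days in a growth chamber, both at 20° C, control was scored 0–100 versus untreated plants.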

[3] = system: Blumeria graminis f. sp. tritici (the causal agent of wheat powdery mildew); experiment: Test E: preventive spray on wheat seedlings, visual disease rating (100 = 100% control; * 50 ppm, ** 10 ppm, *** 250 ppm); conditions: 100 = 100% disease control; for pest or weed control at 250 ppm / Test E disease control rating: 250 ppm test suspension
Excerpt: as §1
The test suspension was sprayed to the point of run-off on wheat seedlings. The following day the seedlings were inoculated with a spore dust of Blumeria graminis f. sp. tritici, (also known as Erysiphe graminis f. sp. tritici, the causal agent of wheat powdery mildew) and incubated in a growth chamber at 20° C. for 8 days, after which time visual disease ratings were made.
as §2

[4] = system: Phakopsora pachyrhizi (the causal agent of Asian soybean rust); experiment: Test A: preventive spray on soybean seedlings, visual disease rating (100 = 100% control; * 50 ppm, ** 10 ppm, *** 250 ppm); conditions: 100 = 100% disease control
In short: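 Preventive test: one day after spraying compound (acetone/water suspension, 250 ppm PEG400), seedlings received rust spore inoculum, 24 h in saturated air then 8 days in growth chamber, both at 22 °C. Disease control scored visually, 100 = complete, 0 = none, relative to untreated controls.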

[5] = system: Phakopsora pachyrhizi (the causal agent of Asian soybean rust); experiment: Test F: Compound 32 or 64 alone and in mixtures on soybean seedlings, observed (Obsd) and Colby expected (Exp) disease control; conditions: for pest or weed control at 10.165 ppm: prothioconazole 10.165 ppm alone; for pest or weed control at 16.339 ppm: prothioconazole 16.339 ppm alone; for pest or weed control at 45.86 ppm: pyraclostrobin 45.860 ppm alone; for pest or weed control at 137.503 ppm: pyraclostrobin 137.503 ppm alone; for pest or weed control at 486.921 ppm: tebuconazole 486.921 ppm alone; for pest or weed control at 841.166 ppm: tebuconazole 841.166 ppm alone; for pest or weed control at 20.511 ppm: trifloxystrobin 20.511 ppm alone; for pest or weed control at 35.31 ppm: trifloxystrobin 35.310 ppm alone
Excerpt: The general protocol for preparing test compositions for Test F was as follows: Compound 32, Compound 64, azoxystrobin, benzovindiflupyr, bixafen, chlorothalonil, cyproconazole, epoxiconazole, fenpropidin, fenpropimorph, fluindapyr, flutriafol, fluxapyroxad, metominostrobin, picoxystrobin, prothioconazole, pydiflumetofen, pyraclostrobin, tebuconazole and trifloxystrobin were obtained as unformulated, technical-grade materials. Copper hydroxide and mancozeb was obtained as a formulated product marketed under the trademarks KOCIDE 3000 and MANZATE, respectively. Unformulated materials were first dissolved in acetone and then suspended at the desired concentration (in ppm) in acetone and purified water (50/50 mix by volume) containing 250 ppm of the surfactant Trem® 014 (polyhydric alcohol esters). Formulated materials were dispersed in sufficient water to give the desired concentration, and neither organic solvent nor surfactant was added to the suspension. The resulting test mixtures were then used in Test F. The tests were run on four individual plants and the results reported as the mean average of the four plants.
The presence of a synergistic effect between two active ingredients was established with the aid of the Colby equation (see Colby, S. R. “Calculating Synergistic and Antagonistic Responses of Herbicide Combinations”, Weeds, (1967), 15, 20-22):
Using the method of Colby, the presence of a synergistic interaction between two active ingredients is established by first calculating the predicted activity, p, of the mixture based on activities of the two components applied alone. If p is lower than the experimentally established effect, synergism has occurred. In the equation above, A is the fungicidal activity in percentage control of one component applied alone at rate x. The B term is the fungicidal activity in percentage control of the second component applied at rate y. The equation estimates p, the expected fungicidal activity of the mixture of A at rate x with B at rate y if their effects are strictly additive and no interaction has occurred.
The test mixture was sprayed to the point of run-off on soybean seedlings. The following day the seedlings were inoculated with a spore suspension of Phakopsora pachyrhizi (the causal agent of Asian soybean rust) and incubated in a saturated atmosphere at 22° C. for 24 h and then moved to a growth chamber at 22° C. for 8 days, after which time visual disease ratings were made.
Results for Test F are given in Tables B-1 through I-1 for Compound 32 and Tables B-2 through I-2 for Compound 64. Each table corresponds to a set of evaluations performed together at the same time. In each table, a rating of 100 indicates 100% disease control and a rating of 0 indicates no disease control (relative to the controls). Columns labeled “Obsd” indicate the average of results observed from test run on four individual plants. Columns labeled “Exp” indicate the expected value for each treatment mixture using the Colby equation.

[6] = Blumeria graminis, wheat seedlings
[7] = Puccinia recondita, 50 ppm test suspension, wheat seedlings
[8] = 10 ppm test suspension, 0 = no control
[9] = 50 ppm test suspension, 0 = no control
[10] = 10 ppm test suspension, soybean seedlings
[11] = 10 ppm test suspension, wheat seedlings
[12] = Phakopsora pachyrhizi, Table G-1
[13] = Phakopsora pachyrhizi, Table G-2
[14] = Phakopsora pachyrhizi, Table H-1
[15] = Phakopsora pachyrhizi, Table H-2
[16] = Phakopsora pachyrhizi, Table D-1
[17] = Phakopsora pachyrhizi, Table D-2
[18] = Phakopsora pachyrhizi, Table E-2

`CCOC(=O)c1cnn(Cc2ccc(OCC(O)(O)C(F)(F)F)cc2)c1` [Compound 1, ethyl 1-[[4-(3,3,3-trifluoro-2,2-dihydroxypropoxy)phenyl]methyl]-1H-pyrazole-4-carboxylate] showed a pest or weed control at 250 ppm ([1]; wheat seedlings) of 97%, a pest or weed control at 250 ppm ([2]; Puccinia recondita, 250 ppm test suspension, wheat seedlings) of 91% and a pest or weed control at 250 ppm [3, 6] of 81%.

`COC(=O)c1ccc(OCC(O)(O)C(F)(F)F)cc1` [Compound 229, methyl 4-(3,3,3-trifluoro-2,2-dihydroxypropoxy)phenylcarboxylate] was tested, and the pest or weed control at 250 ppm ([1]; wheat seedlings) was 96%, the pest or weed control at 50 ppm [2, 7] was 100% and the pest or weed control at 250 ppm [3, 6] was 99%.

For `CCOC(=O)c1cnn(Cc2ccc(OCC(O)(O)C(F)(F)F)c(F)c2)c1` [Compound 264], the “Test A disease control rating” value [4, 8] was 99%, the “Test D disease control rating” value ([1]; 0 = no control) was 95*** % and the “Test B disease control rating” value [2, 8] was 80%. The “Test E disease control rating” value ([3]; 0 = no control) was 96*** %.

`CCOC(=O)c1cnn(Cc2ccc(OCC(O)(O)C(F)(F)F)c(Cl)c2)c1` [Compound 459] was tested, and the “Test A disease control rating” value [4, 9] was 100%, the “Test D disease control rating” value ([1]; 0 = no control) was 37*** % and the “Test B disease control rating” value [2, 9] was 97%. For the same compound, the “Test E disease control rating” value ([3]; 0 = no control) was 0*** %.

For `CCS(=O)(=O)Cc1ccc(OCC(O)(O)C(F)(F)F)cc1` [compound 29], the “Test A disease control rating” value [4, 10] was 84%, the “Test D disease control rating” value ([1]; wheat seedlings) was 0*** % and the “Test B disease control rating” value [2, 11] was 28%. For the same compound, the “Test E disease control rating” value ([3]; wheat seedlings) was 79*** %.

Work on `CCOC(=O)c1cnn(Cc2ccc(OCC3(C(F)(F)F)OCCO3)cn2)c1` [compound 124] yielded a pest or weed control at 250 ppm ([1]; wheat seedlings) of 92%, a pest or weed control at 50 ppm [2, 7] of 0% and a pest or weed control at 50 ppm ([3]; Blumeria graminis, 50 ppm test suspension, wheat seedlings) of 98%.

For `CCO/C(=C\Oc1ccc(Cn2cc(C(=O)OCC(=O)c3ccccc3)cn2)cc1)C(F)(F)F` [compound 244], the “Test A disease control rating” value [4, 10] was 100%, the “Test D disease control rating” value ([1]; wheat seedlings) was 0*** % and the “Test B disease control rating” value [2, 11] was 0%. For the same compound, the “Test E disease control rating” value ([3]; wheat seedlings) was 0*** %.

In the case of `O=[N+]([O-])c1ccc(OCC(O)(O)C(F)(F)F)cc1` [compound 280], the “Test A disease control rating” value [4, 9] is reported as 100%, the “Test D disease control rating” value ([1]; 0 = no control) is reported as 99*** % and the “Test B disease control rating” value [2, 9] is reported as 100%. The “Test E disease control rating” value ([3]; 0 = no control) was 99*** %.

`CCOC(=O)c1cnn(COc2cccc(OCC(O)(O)C(F)(F)F)c2)c1` [compound 320] showed a pest or weed control at 10 ppm ([4]; Phakopsora pachyrhizi, 10 ppm test suspension, 0 = no control) of 89%, a pest or weed control at 250 ppm ([1]; 0 = no control) of 81% and a pest or weed control at 10 ppm ([2]; Puccinia recondita, 10 ppm test suspension, 0 = no control) of 68%. It also gave a pest or weed control at 250 ppm ([3]; Blumeria graminis, 0 = no control) of 91%.

In the case of `CC(=O)N1CC(c2ccc(OCC3(C(F)(F)F)OCCO3)cc2)C1` [compound 372], the “Test A disease control rating” value [4, 9] is reported as 97%, the “Test D disease control rating” value ([1]; 0 = no control) is reported as 99*** % and the “Test B disease control rating” value [2, 9] is reported as 28%. The “Test E disease control rating” value ([3]; 0 = no control) was 99*** %.

`CCOC(=O)c1cnn(Cc2ccc(O/C=C(\OCC)C(F)(F)F)c(I)c2)c1` [compound 374] was tested, and the “Test A disease control rating” value [4, 9] was 0%, the “Test D disease control rating” value ([1]; 0 = no control) was 0*** % and the “Test B disease control rating” value [2, 9] was 0%. The “Test E disease control rating” value ([3]; 0 = no control) was 76*** %.

Work on `OC(Cc1ccccc1Cl)(Cn1nc[nH]c1=S)C1(Cl)CC1` (centres unmarked) [prothioconazole] yielded a pest or weed control at 10.165 ppm [5, 12] of 7%, a pest or weed control at 10.165 ppm [5, 13] of 7% and a pest or weed control at 16.339 ppm [5, 12] of 65%. It also gave a pest or weed control at 16.339 ppm [5, 13] of 65%.

`CON(C(=O)c1cn(C)nc1C(F)F)C(C)Cc1c(Cl)cc(Cl)cc1Cl` (centres unmarked) [pydiflumetofen] gave an Obsd disease control ([5]; pydiflumetofen 41.364 ppm alone, Table H-1) of 49%, an Obsd disease control ([5]; pydiflumetofen 41.364 ppm alone, Table H-2) of 49% and an Obsd disease control ([5]; pydiflumetofen 70.950 ppm alone, Table F-1) of 0%. The Obsd disease control ([5]; pydiflumetofen 70.950 ppm alone, Table F-2) was 0%, the Obsd disease control ([5]; pydiflumetofen 128.793 ppm alone, Table H-1) was 36% and the Obsd disease control ([5]; pydiflumetofen 128.793 ppm alone, Table H-2) was 36%. For the same compound, the Obsd disease control ([5]; pydiflumetofen 135.850 ppm alone, Table F-1) was 73% and the Obsd disease control ([5]; pydiflumetofen 135.850 ppm alone, Table F-2) was 73%.

`COC(=O)N(OC)c1ccccc1COc1ccn(-c2ccc(Cl)cc2)n1` [pyraclostrobin] showed a pest or weed control at 45.86 ppm [5, 14] of 35%, a pest or weed control at 45.86 ppm [5, 15] of 35% and a pest or weed control at 137.503 ppm [5, 14] of 45%. It also gave a pest or weed control at 137.503 ppm [5, 15] of 45%.

In the case of `CC(C)(C)C(O)(CCc1ccc(Cl)cc1)Cn1cncn1` (centres unmarked) [tebuconazole], the pest or weed control at 486.921 ppm [5, 16] is reported as 30%, the pest or weed control at 486.921 ppm [5, 17] is reported as 30% and the pest or weed control at 841.166 ppm [5, 16] is reported as 55%. The pest or weed control at 841.166 ppm [5, 17] was 55%.

For `CON=C(C(=O)OC)c1ccccc1CON=C(C)c1cccc(C(F)(F)F)c1` [trifloxystrobin], the pest or weed control at 20.511 ppm [5, 18] was 69%, the pest or weed control at 35.31 ppm [5, 18] was 86% and the pest or weed control at 20.511 ppm ([5]; Table E-1) was 69%. It also gave a pest or weed control at 35.31 ppm ([5]; Table E-1) of 86%.
